Measurements: patent US8741897B2, “Glucocorticoid mimetics, methods of making them, pharmaceutical compositions and uses thereof” (Boehringer Ingelheim Pharmaceuticals Inc., priority 2003, dated 2014)

System: glucocorticoid receptor function
Experiment: one or more of the above assays (GR binding and glucocorticoid receptor cell assays: aromatase, IL-6, TAT, MMTV-Luc, IL-8, ICAM-Luc)
Assay type: cell-based
Settings: assay not specified per compound
Protocol: B. Glucocorticoid Receptor Cell Assays
1. Induction of Aromatase in Fibroblasts (Cell Assay for Transactivation)
Dexamethasone, a synthetic ligand to the glucocorticoid receptor (GR), induces expression of aromatase in human foreskin fibroblast cells. The activity of aromatase is measured by the conversion of testosterone to estradiol in culture media.
On the day of the experiment, the media in the wells is replaced with fresh media. Cells are treated with test compounds to final concentrations of 10^−5 M to 10^−8 M, and testosterone to a final concentration of 300 ng/mL. Each well has a total volume of 100 μL. Samples are made in duplicates. Control wells include: (a) wells that receive testosterone only, and (b) wells that receive testosterone plus 2 μM of dexamethasone to provide maximum induction of aromatase. Plates are incubated at 37° C. overnight (15 to 18 hours), and supernatants are harvested at the end of incubation. […] The amount of estradiol is inversely proportional to the ELISA signals in each well. The extent of aromatase induction by test compounds is expressed as a relative percentage to dexamethasone. EC50 values of test compounds are derived by non-linear curve fitting.
2. Inhibition of IL-6 Production in Fibroblasts (Cell Assay for Transrepression)
Human foreskin fibroblast cells produce IL-6 in response to stimulation by proinflammatory cytokine IL-1.
On the next day, media in the wells is replaced with fresh media. Cells are treated with IL-1 (rhIL-1α, R&D Systems Cat. No. 200-LA) to a final concentration of 1 ng/mL, and with test compounds to final concentrations of 10^−5 M to 10^−8 M, in a total volume of 200 μL per well. Samples are done in duplicates. […] Positive control wells receive IL-1 only and represent maximum (or 100%) amount of IL-6 production. Plates are incubated at 37° C. overnight (15 to 18 hours), and supernatants are harvested at the end of incubation. IL-6 levels in the supernatants are determined by the ELISA kits for IL-6 (MedSystems Diagnostics GmbH, Vienna, Austria, Cat. No. BMS213TEN) according to manufacture's instructions. The extent of inhibition of IL-6 by test compounds is expressed in percentage relative to positive controls. IC50 values of test compounds are derived by non-linear curve fitting.
Evaluation of agonist or antagonist activity of compounds binding to the glucocorticoid receptor may be determined by any of the assays.
3. Modulation of Tyrosine Aminotransferase (TAT) Induction in Rat Hepatoma Cells
Testing of compounds for agonist or antagonist activity in induction of tyrosine aminotransferase (TAT) in rat hepatoma cells.
H4-II-E-C3 cells were incubated overnight in 96 well plates (20,000 cells/100 μL/well) in MEM medium containing 10% heat inactivated FBS and 1% nonessential amino acids. On the next day, cells were stimulated with the indicated concentrations of dexamethasone or test compound (dissolved in DMSO, final DMSO concentration 0.2%) for 18 hours. Control cells were treated with 0.2% DMSO. After 18 hours, the cells were lysed in a buffer containing 0.1% Triton X-100 and the TAT activity was measured in a photometric assay using tyrosine and alpha-ketoglutarate as substrates.
For measuring antagonist activity, the hepatoma cells were pre-stimulated by addition of dexamethasone (concentration ranges from 3×10^−9 M to 3×10^−8 M) shortly before the test compound was applied to the cells.
4. Modulation of MMTV-Luc Induction in HeLa Cells
Testing of compounds for agonist or antagonist activity in stimulation of MMTV-(mouse mammary tumor virus) promoter in HeLa cells.
Cells were cultured overnight in DMEM medium without phenol red, supplemented with 3% CCS (charcoal treated calf serum) and then transferred to 96 well plates (15,000 cells/100 μL/well).

| Compound | activity as agonists of the glucocorticoid receptor function in one or more of the above assays |
| --- | --- |
| COc1ccc(C)cc1C(C)(C)CC(O)(Cc1cc2nc(N3CCCC3)ncc2[nH]1)C(F)(F)F (stereo not shown) | potent agonists |
| CC(C)(CC(O)(Cc1cc2cnccc2[nH]1)C(F)(F)F)c1cccc(CN2CCOCC2)c1 (stereo not shown) [1,1,1-Trifluoro-4-methyl-4-(3-morpholin-4-ylmethylphenyl)-2-(1H-pyrrolo[3,2-c]pyridin-2-ylmethyl)pentan-2-ol] | potent agonists |
| Cc1nccc2[nH]c(CC(O)(CC(C)(C)c3cc(-c4cccnc4)ccc3O)C(F)(F)F)cc12 (stereo not shown) [4-Pyridin-3-yl-2-[4,4,4-trifluoro-3-hydroxy-1,1-dimethyl-3-(4-methyl-1H-pyrrolo[3,2-c]pyridin-2-ylmethyl)butyl]phenol] | potent agonists |
| COc1ccc(F)cc1C(C)(C)CC(O)(Cc1[nH]c2ccncc2c1Cl)C(F)(F)F (stereo not shown) [2-(3-Chloro-1H-pyrrolo[3,2-c]pyridin-2-ylmethyl)-1,1,1-trifluoro-4-(5-fluoro-2-methoxyphenyl)-4-methylpentan-2-ol] | potent agonists |
| COc1ccc(Br)cc1C(C)(C)CC(O)(Cc1cc2cc(OC(C)C)ncc2[nH]1)C(F)(F)F (stereo not shown) [4-(5-Bromo-2-methoxyphenyl)-1,1,1-trifluoro-2-(5-isopropoxy-1H-pyrrolo[2,3-c]pyridin-2-ylmethyl)-4-methylpentan-2-ol] | potent agonists |
| CC(C)(CC(O)(Cc1cc2c(C#N)cccc2[nH]1)C(F)(F)F)c1cc(F)ccc1O (stereo not shown) [2-[4-(5-Fluoro-2-hydroxyphenyl)-2-hydroxy-4-methyl-2-trifluoromethylpentyl]-1H-indole-4-carbonitrile] | potent agonists |
| CC(C)(CC(O)(Cn1ccc2ncccc21)C(F)(F)F)c1cc(S(C)(=O)=O)cc2c1OCC2 (stereo not shown) [1,1,1-Trifluoro-4-(5-methanesulfonyl-2,3-dihydrobenzofuran-7-yl)-4-methyl-2-pyrrolo[3,2-b]pyridin-1-ylmethylpentan-2-ol] | potent agonists |
| Cc1ccc(F)cc1C(C)(C)CC(O)(Cc1cc2cc(N3CCCC3)ncc2[nH]1)C(F)(F)F (stereo not shown) [1,1,1-Trifluoro-4-(5-fluoro-2-methylphenyl)-4-methyl-2-(5-pyrrolidin-1-yl-1H-pyrrolo[2,3-c]pyridin-2-ylmethyl)pentan-2-ol] | potent agonists |
| CC(C)c1ncc2[nH]c(CC(O)(CC(C)(C)c3cc(Cl)cc4c3OCC4)C(F)(F)F)cc2n1 (stereo not shown) [4-(5-Chloro-2,3-dihydrobenzofuran-7-yl)-1,1,1-trifluoro-2-(2-isopropyl-5H-pyrrolo[3,2-d]pyrimidin-6-ylmethyl)-4-methylpentan-2-ol] | potent agonists |
| CSc1cc2c(c(C(C)(C)CC(O)(Cc3cc4cc(Cl)ncc4[nH]3)C(F)(F)F)c1)OCC2 (stereo not shown) [2-(5-Chloro-1H-pyrrolo[2,3-c]pyridin-2-ylmethyl)-1,1,1-trifluoro-4-methyl-4-(5-methylsulfanyl-2,3-dihydrobenzofuran-7-yl)pentan-2-ol] | potent agonists |
| COc1ccc(Br)cc1C(C)(C)CC(O)(Cc1cc2cc(Cl)ncc2[nH]1)C(F)(F)F (stereo not shown) [4-(5-Bromo-2-methoxyphenyl)-2-(5-chloro-1H-pyrrolo[2,3-c]pyridin-2-ylmethyl)-1,1,1-trifluoro-4-methylpentan-2-ol] | potent agonists |
| Cc1cccc2[nH]c(CC(O)(CC(C)(C)c3cc(S(C)(=O)=O)cc4c3OCC4)C(F)(F)F)cc12 (stereo not shown) [1,1,1-Trifluoro-4-(5-methanesulfonyl-2,3-dihydrobenzofuran-7-yl)-4-methyl-2-(4-methyl-1H-indol-2-ylmethyl)pentan-2-ol] | potent agonists |
| COc1cc(F)ccc1C(C)(C)CC(O)(Cc1cc2cc(N(C)C)ncc2[nH]1)C(F)(F)F (stereo not shown) [2-(5-Dimethylamino-1H-pyrrolo[2,3-c]pyridin-2-ylmethyl)-1,1,1-trifluoro-4-(4-fluoro-2-methoxyphenyl)-4-methylpentan-2-ol] | potent agonists |
| CC(C)(CC(O)(Cc1cc2nc(-c3ccccc3)ncc2[nH]1)C(F)(F)F)c1cc(F)ccc1O (stereo not shown) [4-Fluoro-2-[4,4,4-trifluoro-3-hydroxy-1,1-dimethyl-3-(2-phenyl-5H-pyrrolo[3,2-d]pyrimidin-6-ylmethyl)butyl]phenol] | potent agonists |
| Cc1nccc2[nH]c(CC(O)(CC(C)(C)c3cc(-c4ccccc4)ccc3O)C(F)(F)F)cc12 (stereo not shown) [3-[4,4,4-Trifluoro-3-hydroxy-1,1-dimethyl-3-(4-methyl-1H-pyrrolo[3,2-c]pyridin-2-ylmethyl)butyl]biphenyl-4-ol] | potent agonists |
| COc1cc(F)ccc1C(C)(C)CC(O)(Cc1cc2c(C)nccc2[nH]1)C(F)(F)F (stereo not shown) [1,1,1-Trifluoro-4-(4-fluoro-2-methoxyphenyl)-4-methyl-2-(4-methyl-1H-pyrrolo[3,2-c]pyridin-2-ylmethyl)pentan-2-ol] | potent agonists |
| COc1ccc(Br)cc1C(C)(C)CC(O)(Cc1cc2cc(N3CCOCC3)ncc2[nH]1)C(F)(F)F (stereo not shown) [4-(5-Bromo-2-methoxyphenyl)-1,1,1-trifluoro-4-methyl-2-(5-morpholin-4-yl-1H-pyrrolo[2,3-c]pyridin-2-ylmethyl)pentan-2-ol] | potent agonists |
| CC(C)(CC(O)(Cc1cc2cc(Cl)ncc2[nH]1)C(F)(F)F)c1cc(Br)ccc1O (stereo not shown) [4-Bromo-2-[3-(5-chloro-1H-pyrrolo[2,3-c]pyridin-2-ylmethyl)-4,4,4-trifluoro-3-hydroxy-1,1-dimethylbutyl]phenol] | potent agonists |
| COc1ccc(Br)cc1C(C)(C)CC(O)(Cc1cc2cc(N3CCCCC3)ncc2[nH]1)C(F)(F)F (stereo not shown) [4-(5-Bromo-2-methoxyphenyl)-1,1,1-trifluoro-4-methyl-2-(5-piperidin-1-yl-1H-pyrrolo[2,3-c]pyridin-2-ylmethyl)pentan-2-ol] | potent agonists |
| CC(C)(CC(O)(Cc1cc2cc(N3CCOCC3)ncc2[nH]1)C(F)(F)F)c1cccc(CN2CCOCC2)c1 (stereo not shown) [1,1,1-Trifluoro-4-methyl-4-(3-morpholin-4-ylmethylphenyl)-2-(5-morpholin-4-yl-1H-pyrrolo[2,3-c]pyridin-2-ylmethyl)pentan-2-ol] | potent agonists |
| CC(C)(CC(O)(Cc1cc2cc(N3CCOCC3)ncc2[nH]1)C(F)(F)F)c1cccc(F)c1 (stereo not shown) [1,1,1-Trifluoro-4-(3-fluorophenyl)-4-methyl-2-(5-morpholin-4-yl-1H-pyrrolo[2,3-c]pyridin-2-ylmethyl)pentan-2-ol] | potent agonists |
| CC(C)(CC(O)(Cc1cc2nc(CN3CCOCC3)ccc2[nH]1)C(F)(F)F)c1cc(Cl)cc2c1OCC2 (stereo not shown) [4-(5-Chloro-2,3-dihydrobenzofuran-7-yl)-1,1,1-trifluoro-4-methyl-2-(5-morpholin-4-ylmethyl-1H-pyrrolo[3,2-b]pyridin-2-ylmethyl)pentan-2-ol] | potent agonists |
